The record followed here is PubChem BioAssay (NCI).

Each structure is given as a SMILES string.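 1) Cells in 96-well plates. 2) Compound, 48 h, 5 concentrations. 3) Linear interpolation between surrounding doses. 4) Unreached endpoint = highest concentration. The concentration for 50% growth inhibition is given as GI50. The concentration for full growth arrest is given as TGI.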 A value given as a limit tells only on which side of the number the result lay.

The subject of the first experiment is SK-MEL-2 melanoma. Description: NCI tumour cell line growth inhibition, 48 h.
Compound `CC(=O)Nc1nc(C#N)[nH]c1C#N` registered a TGI of over 100 µM.
Regarding `O=C(O)/C=C(/C(=O)O)C12CCN3CC4=CCOC5CC(=O)NC1C5C4CC32` (configuration not stated), the TGI is over 100 µM.
Compound `Cc1c(S(=O)(=O)c2ccccc2)c(N)n(CCN(C)C)c1C` came in with a TGI of over 100 µM.
Regarding `COc1ccc2c(C)cc(=O)oc2c1OC`, the TGI is over 100 µM.
Still for that read-out and setting: the result for `COc1cccc2c1OC1(C=C2)Oc2ccccc2C(=O)N1C` (configuration not stated) reads over 100 µM; that for `O=[N+]([O-])c1ccc(Oc2c(Cl)cc(S(=O)(=O)/N=C(\NO)Nc3ccc(Cl)cc3)cc2Cl)cc1`, 24.1 µM; that for `Cc1cc(N(CCOS(C)(=O)=O)CCOS(C)(=O)=O)ccc1C=O`, 72.9 µM.
For `O=c1[nH]c(=O)n(C2OC(CO)C(O)C2O)c2nc(-c3ccc(-c4ccccc4)cc3)cnc12` (configuration not stated), the TGI was over 100 µM.
In the case of `CN1CSC(=S)N(c2c3ccccc3nc3ccc(Br)cc23)C1`, the TGI was 29.3 µM.
The same measure, in the same setting: the result for `CCCCCCOc1ccc(C(=O)NOC)cc1` reads over 100 µM; that for `NS(=O)(=O)c1cc(Cl)c(NC(=S)NC(=O)Nc2ccc(Cl)c(Cl)c2)c(Cl)c1`, 90.6 µM.
`Cc1cn(C2CC(O)C(CO)O2)c(=O)[nH]c1=O` (configuration not stated): the TGI was over 5000 µM.
Compound `CCOC(=O)c1c(C)nc2c3ccccc3c(C#N)c(C)n12` gave a TGI of over 100 µM.
As to `Cc1cc2c3c(nc4ccccc42)C(=O)c2ccccc2-c3n1`, the TGI was 47.8 µM.
As for `COc1ccc2c(c1)/C(=C\c1c(Cl)nc3sc(C)cn13)C(=O)N2`, the TGI is 8.41 µM.
For the compound `CO[C@H]1/C=C(/C)CCC[C@H](C)[C@H](O)[C@@H](C)C(=O)C(C)(C)[C@@H](O)CC(=O)O[C@@H]1/C(C)=C/c1csc(C)n1`, the GI50 was 0.0186 µM.
As for `OCCc1ccsc1-c1sc(-c2cc(CCO)c(-c3sccc3CCO)s2)cc1CCO`, the TGI came out at 29.5 µM.
`COc1cccc2c(=O)oc(-c3ccc(C(C)(C)C)cc3)nc12`: the TGI was over 100 µM.
On the same count and under the same terms, the result for `COc1ccc2c(c1)OCC1Cc3ccccc3OC21` (configuration not stated) reads over 100 µM; that for `COC(=O)C1CCC(=O)N1C(c1ccc(OC)cc1)c1ccc2c(c1)OCO2` (configuration not stated), over 100 µM.
Compound `CC1=NN(c2cccc(Cl)c2)C2(C1=C/C=C/c1ccccc1)C(Cl)C(=O)N2c1nc2ccccc2s1` (configuration not stated) registered a TGI of 40.1 µM.
For `C=CCSc1nnc2cc(CN3CCCC3)c(-c3ccc(Cl)cc3)nn12`, the TGI turned out to be 34.5 µM.
On the same count and under the same terms, the figure for `CCOC(=O)c1cn2c(nc1=O)N[C@H]1CCCC[C@@H]12` is over 100 µM.
`CN(C)c1ccc(C(=N/N=C2\C(=O)Nc3ccccc32)c2ccc(N(C)C)cc2)cc1` registered a TGI of 2.72 µM.
On to `Cc1ccc(C(=C2Sc3ccccc3S2)C(=C2Sc3ccccc3S2)c2ccc(C)s2)s1`, for which the TGI was over 100 µM.
Compound `CC1(C)CCCC2OC2CCC(C)(C)C1=O` (configuration not stated) returned a TGI of over 100 µM.

The subject of another experiment is A498 renal. The experiment can be described thus: NCI tumour cell line growth inhibition, 48 h.
In turn, `CC(=O)Nc1nc(C#N)[nH]c1C#N` gave a TGI of over 100 µM.
`O=C(O)/C=C(/C(=O)O)C12CCN3CC4=CCOC5CC(=O)NC1C5C4CC32` (configuration not stated) yielded a TGI of over 100 µM.
Still for that read-out and setting: the figure for `Cc1c(S(=O)(=O)c2ccccc2)c(N)n(CCN(C)C)c1C` is over 100 µM; for `COc1ccc2c(C)cc(=O)oc2c1OC` it is over 100 µM.
`COc1cccc2c1OC1(C=C2)Oc2ccccc2C(=O)N1C` (configuration not stated) had a TGI of 57.4 µM.
The compound `O=[N+]([O-])c1ccc(Oc2c(Cl)cc(S(=O)(=O)/N=C(\NO)Nc3ccc(Cl)cc3)cc2Cl)cc1` displayed a TGI of 23.3 µM.
Consider `Cc1cc(N(CCOS(C)(=O)=O)CCOS(C)(=O)=O)ccc1C=O`, for which the TGI is 7.29 µM.
`O=c1[nH]c(=O)n(C2OC(CO)C(O)C2O)c2nc(-c3ccc(-c4ccccc4)cc3)cnc12` (configuration not stated) came in with a TGI of over 100 µM.
Same read-out and setting: the figure for `CN1CSC(=S)N(c2c3ccccc3nc3ccc(Br)cc23)C1` is 27 µM; for `CCCCCCOc1ccc(C(=O)NOC)cc1` it is over 100 µM; for `NS(=O)(=O)c1cc(Cl)c(NC(=S)NC(=O)Nc2ccc(Cl)c(Cl)c2)c(Cl)c1` it is 84.4 µM.
In turn, `Cc1cn(C2CC(O)C(CO)O2)c(=O)[nH]c1=O` (configuration not stated) returned a TGI of over 5000 µM.
`CCOC(=O)c1c(C)nc2c3ccccc3c(C#N)c(C)n12` returned a TGI of over 100 µM.
`Cc1cc2c3c(nc4ccccc42)C(=O)c2ccccc2-c3n1` showed a TGI of 42.3 µM.
In turn, `COc1ccc2c(c1)/C(=C\c1c(Cl)nc3sc(C)cn13)C(=O)N2` displayed a TGI of 16.6 µM.
Consider `CO[C@H]1/C=C(/C)CCC[C@H](C)[C@H](O)[C@@H](C)C(=O)C(C)(C)[C@@H](O)CC(=O)O[C@@H]1/C(C)=C/c1csc(C)n1`, for which the GI50 is 0.0234 µM and the TGI was over 100 µM.
As to `OCCc1ccsc1-c1sc(-c2cc(CCO)c(-c3sccc3CCO)s2)cc1CCO`, the TGI came out at 40.3 µM.
As to `COc1cccc2c(=O)oc(-c3ccc(C(C)(C)C)cc3)nc12`, the TGI was over 100 µM.
Turning to `COc1ccc2c(c1)OCC1Cc3ccccc3OC21` (configuration not stated), the TGI was over 10 µM.
`COC(=O)C1CCC(=O)N1C(c1ccc(OC)cc1)c1ccc2c(c1)OCO2` (configuration not stated): the TGI was over 100 µM.
On the same count and under the same terms, the result for `CC1=NN(c2cccc(Cl)c2)C2(C1=C/C=C/c1ccccc1)C(Cl)C(=O)N2c1nc2ccccc2s1` (configuration not stated) reads over 66 µM.
Same read-out and setting: the result for `C=CCSc1nnc2cc(CN3CCCC3)c(-c3ccc(Cl)cc3)nn12` reads 35.9 µM.
The compound `CCOC(=O)c1cn2c(nc1=O)N[C@H]1CCCC[C@@H]12` showed a TGI of over 100 µM.
With `CN(C)c1ccc(C(=N/N=C2\C(=O)Nc3ccccc32)c2ccc(N(C)C)cc2)cc1`, the TGI worked out at 16.8 µM.
For `Cc1ccc(C(=C2Sc3ccccc3S2)C(=C2Sc3ccccc3S2)c2ccc(C)s2)s1`, the TGI was over 100 µM.
In turn, `CC1(C)CCCC2OC2CCC(C)(C)C1=O` (configuration not stated) displayed a TGI of over 100 µM.

The next experiment relates to IGROV1 ovarian. Description: NCI tumour cell line growth inhibition, 48 h.
As to `CC(=O)Nc1nc(C#N)[nH]c1C#N`, the TGI is over 100 µM.
`O=C(O)/C=C(/C(=O)O)C12CCN3CC4=CCOC5CC(=O)NC1C5C4CC32` (configuration not stated) registered a TGI of over 100 µM.
`Cc1c(S(=O)(=O)c2ccccc2)c(N)n(CCN(C)C)c1C`: the TGI was over 100 µM.
In the case of `COc1ccc2c(C)cc(=O)oc2c1OC`, the TGI is over 100 µM.
As for `COc1cccc2c1OC1(C=C2)Oc2ccccc2C(=O)N1C` (configuration not stated), the TGI is over 100 µM.
As to `O=[N+]([O-])c1ccc(Oc2c(Cl)cc(S(=O)(=O)/N=C(\NO)Nc3ccc(Cl)cc3)cc2Cl)cc1`, the TGI is 29.8 µM.
Compound `Cc1cc(N(CCOS(C)(=O)=O)CCOS(C)(=O)=O)ccc1C=O` gave a TGI of 39.2 µM.
Take `O=c1[nH]c(=O)n(C2OC(CO)C(O)C2O)c2nc(-c3ccc(-c4ccccc4)cc3)cnc12` (configuration not stated): the TGI is over 100 µM.
Compound `CN1CSC(=S)N(c2c3ccccc3nc3ccc(Br)cc23)C1` returned a TGI of 25.1 µM.
Consider `CCCCCCOc1ccc(C(=O)NOC)cc1`, for which the TGI is over 100 µM.
Still for that read-out and setting: the result for `NS(=O)(=O)c1cc(Cl)c(NC(=S)NC(=O)Nc2ccc(Cl)c(Cl)c2)c(Cl)c1` reads over 100 µM; that for `Cc1cn(C2CC(O)C(CO)O2)c(=O)[nH]c1=O` (configuration not stated), over 5000 µM; that for `CCOC(=O)c1c(C)nc2c3ccccc3c(C#N)c(C)n12`, over 100 µM.
In turn, `Cc1cc2c3c(nc4ccccc42)C(=O)c2ccccc2-c3n1` displayed a TGI of over 100 µM.
